# Measurements as given in patent US20090143471A1, “Process for the Atomization of Ioxilan” (GUERBET, priority 2006, published 2009).
# Test: immediate solubility in water
# Type: physicochemical
# Conditions: ambient or moderate temperature (typically from 20 to 40° C.)
# Experimental: Another disadvantage of the prior process by crystallization was that, in order to obtain an appropriate concentration of active principle in the contrast agent, the dissolution of the crystalline compound B1 (solid crystalline ioxilan, denoted B1; compound B of FIG. 1 is compound B1) required heating at high temperature (80° C.). This is because the immediate solubility of B1 in water at ambient or moderate temperature (typically from 20 to 40° C.) was of the order of 50 mg of iodine/ml.
# The atomized compound B2 is soluble at ambient or moderate temperature. It is possible, starting from the compound B2, to obtain an appropriate pharmaceutical solution without needing to heat at high temperature. The immediate solubility of B2 in water at ambient or moderate temperature, of the order of at least 500 mg of iodine/ml and typically of approximately 500 mg of iodine/ml, makes it possible to obtain an injected contrast agent having a concentration of 350 to 450 mg of iodine/ml, for example 350, 380 or 400 mg of iodine/ml.
smiles,measurement,value
"CC(=O)N(CC(O)CO)c1c(I)c(C(=O)NCCO)c(I)c(C(=O)NCC(O)CO)c1I (stereo not shown) [B1, 5-[N-(2,3-dihydroxypropyl)acetamido]-2,4,6-triiodo-N-(2,3-dihydroxypropyl)-N′-(2-hydroxyethyl)isophthalamide]",immediate solubility in water,~50 mg of iodine/ml
